Measurements: patent US20070219254A1, “Therapeutic Compounds: Pyridine N-Oxide Scaffold” (priority 2004, published 2007)
Like-named read-outs stand apart in the source and are kept apart here.

Key:
Human CB1 receptor [1] = biological target: T1, Human CB1 receptor (Homo sapiens, UniProt P21554); assay: hCB1 receptor binding (3H-CP55,940 displacement)
T1 construct: purchased Receptor Biology
Experimental: Human CB1 receptor from Receptor Biology (hCB1) or human CB2 receptor from BioSignal (hCB2) membranes are thawed at 37° C., passed 3 times through a 25-gauge blunt-end needle, diluted in the cannabinoid binding buffer (50 mM Tris, 2.5 mM EDTA, 5 mM MgCl2, and 0.5 mg/mL BSA fatty acid free, pH 7.4) and aliquots containing the appropriate amount of protein are distributed in 96-well plates. The IC50 of the compounds of the invention at hCB1 and hCB2 are evaluated from 10-point dose-response curves done with ^3H-CP55,940 at 20000 to 25000 dpm per well (0.17-0.21 nM) in a final volume of 300 μl. The total and non-specific binding are determined in the absence and presence of 0.2 μM of HU210 respectively. The plates are vortexed and incubated for 60 minutes at room temperature, filtered through Unifilters GF/B (presoaked in 0.1% polyethyleneimine) with the Tomtec or Packard harvester using 3 mL of wash buffer (50 mM Tris, 5 mM MgCl2, 0.5 mg BSA pH 7.0). The filters are dried for 1 hour at 55° C. The radioactivity (cpm) is counted in a TopCount (Packard) after adding 65 μl/well of MS-20 scintillation liquid.
Based on the above assays, the dissociation constant (Ki) for a particular compound of the invention towards a particular receptor is determined using the following equation: […]
Wherein IC50 is the concentration of the compound of the invention at which 50% displacement has been observed;
[rad] is a standard or reference radioactive ligand concentration at that moment; and
Kd is the dissociation constant of the radioactive ligand towards the particular receptor.

Human CB1 receptor [2] = biological target: T1, Human CB1 receptor; assay: hCB1 GTPγS binding; assay type: biochemical; conditions: for Emax: maximal stimulation defined by 10 μM Win 55,212-2
Experimental: Human CB1 receptor from Receptor Biology (hCB1) or human CB2 receptor membranes (BioSignal) are thawed at 37° C., passed 3 times through a 25-gauge blunt-end needle and diluted in the GTPγS binding buffer (50 mM Hepes, 20 mM NaOH, 100 mM NaCl, 1 mM EDTA, 5 mM MgCl2, pH 7.4, 0.1% BSA). The EC50 and Emax of the compounds of the invention are evaluated from 10-point dose-response curves done in 300 μl with the appropriate amount of membrane protein and 100000-130000 dpm of GTPg^35S per well (0.11-0.14 nM). The basal and maximal stimulated binding is determined in absence and presence of 1 μM (hCB2) or 10 μM (hCB1) Win 55,212-2 respectively. The membranes are pre-incubated for 5 minutes with 56.25 μM (hCB2) or 112.5 μM (hCB1) GDP prior to distribution in plates (15 μM (hCB2) or 30 μM (hCB1) GDP final). The plates are vortexed and incubated for 60 minutes at room temperature, filtered on Unifilters GF/B (presoaked in water) with the Tomtec or Packard harvester using 3 ml of wash buffer (50 mM Tris, 5 mM MgCl2, 50 mM NaCl, pH 7.0). The filters are dried for 1 hour at 55° C. The radioactivity (cpm) is counted in a TopCount (Packard) is after adding 65 μl/well of MS-20 scintillation liquid. Antagonist reversal studies are done in the same way except that (a) an agonist dose-response curve is done in the presence of a constant concentration of antagonist, or (b) an antagonist dose-response curve is done in the presence of a constant concentration of agonist.

[3] = hCB1 membranes, 3H-CP55,940, Ki=IC50/(1+[rad]/Kd), read-out: Ki (hCB1)
[4] = hCB1 membranes, GTPγ35S, read-out: EC50 (hCB1)

T1 sequence (P21554 whole entry): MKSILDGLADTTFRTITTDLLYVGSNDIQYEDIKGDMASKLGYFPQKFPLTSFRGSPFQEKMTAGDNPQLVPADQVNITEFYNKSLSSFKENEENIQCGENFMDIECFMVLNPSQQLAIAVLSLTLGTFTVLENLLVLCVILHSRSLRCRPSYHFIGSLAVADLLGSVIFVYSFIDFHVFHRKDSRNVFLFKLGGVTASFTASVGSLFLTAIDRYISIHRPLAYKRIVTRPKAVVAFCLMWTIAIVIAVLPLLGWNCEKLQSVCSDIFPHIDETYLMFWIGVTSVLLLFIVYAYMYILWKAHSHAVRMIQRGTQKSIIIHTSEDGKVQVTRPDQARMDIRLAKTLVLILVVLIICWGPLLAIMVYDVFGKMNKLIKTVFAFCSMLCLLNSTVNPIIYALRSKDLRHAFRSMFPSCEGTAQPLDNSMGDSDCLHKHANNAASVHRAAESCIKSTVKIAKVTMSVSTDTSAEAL

Row | SMILES | Ki (Human CB1 receptor [1]; [3]) | EC50 (Human CB1 receptor [2]; [4]) | Emax (Human CB1 receptor [2]; hCB1 membranes) | Ki (Human CB1 receptor [1]) | EC50 (Human CB1 receptor [2])
1 | Cc1ccc(C(=O)Nc2ccc[n+]([O-])c2C(=O)NCC2CCC2)c2ccccc12 [Example 2, N-(Cyclobutylmethyl)-3-[[(4-methyl-1-naphthalenyl)carbonyl]amino]-1-oxide-2-pyridinecarboxamide] | 18 nM | 167 nM | 106% | – | –
2 | O=C(Nc1ccc[n+]([O-])c1C(=O)NCC1CCCCC1)c1cccc2ccccc12 [Example 7, N-(Cyclohexylmethyl)-3-[(1-naphthalenylcarbonyl)amino]-1-oxide-2-pyridinecarboxamide] | – | – | 128% | 47 nM | 506 nM
3 | Cc1ccc(C(=O)Nc2ccc[n+]([O-])c2C(=O)NCC2CCCCC2)c2ccccc12 [Example 8, N-(Cyclohexylmethyl)-3-[(4-methyl-1-naphthalenylcarbonyl)amino]-1-oxide-2-pyridinecarboxamide] | 42 nM | 191 nM | 122% | – | –
